# Measurements taken from patent publication US8835440B2, “Cyclic pyrimidin-4-carboxamides as CCR2 receptor antagonists for treatment of inflammation, asthma and COPD” (Boehringer Ingelheim International GmbH, priority 2008, dated 2014).
# Target: T1, CCR2 (Homo sapiens, UniProt P41597)
# T1 construct: Membranes were prepared from THP-1 cells; endogenous in cells; host or cells: THP-1 cells (membrane preparation)
# T1 sequence (P41597 1-360 isoform P41597-2): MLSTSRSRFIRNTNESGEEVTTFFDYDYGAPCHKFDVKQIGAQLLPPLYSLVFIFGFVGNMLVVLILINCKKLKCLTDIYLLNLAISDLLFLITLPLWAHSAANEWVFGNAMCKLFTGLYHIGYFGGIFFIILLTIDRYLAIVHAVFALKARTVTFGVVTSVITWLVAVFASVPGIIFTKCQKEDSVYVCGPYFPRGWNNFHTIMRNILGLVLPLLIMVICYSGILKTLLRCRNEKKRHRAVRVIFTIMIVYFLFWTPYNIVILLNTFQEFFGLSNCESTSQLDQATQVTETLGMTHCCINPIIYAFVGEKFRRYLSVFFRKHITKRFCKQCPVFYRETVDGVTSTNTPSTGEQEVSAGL
# Experiment: CCR2 receptor membrane binding assay ([125I]MCP-1, THP-1 cell membranes, SPA beads)
# Settings: for Ki: dissociation constant hKi, [125I]MCP-1 binding to THP-1 membranes; for remaining activity at 10 µM: @ 10 μM test compound, THP-1 membranes, read-out: CCR2 % ctrl @ 10 μM
# Outline: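 hKi was derived by iterative law-of-mass-action fitting of scintillation counts read at 8 h. Compound (1% DMSO final) competed with ca. 25000 cpm [125I]MCP-1 for THP-1 membranes bound to WGA-PVT beads. Buffer: 25 mM HEPES pH 7.2, 5 mM MgCl2, 0.5 mM CaCl2, 0.2% BSA.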
SMILES,Ki [nM],remaining activity at 10 µM [%]
CCc1c(NCc2cccc(-c3ccccc3)c2)ncnc1C(=O)N1CCC(N2CCOCC2)CC1 [Example 276],1840,23
O=C(c1ncnc(NCc2cccc(-c3ccccc3)c2)c1Br)N1CCC(N2CCOCC2)CC1 [Example 277],1380,34
O=C(c1ncnc(NCc2cccc(-c3ccccc3)c2)c1Br)N1CCC(N2CCC(O)CC2)CC1 [Example 278],1080,32
Cc1c(NCCc2ccc(Cl)c(Cl)c2)ncnc1C(=O)N1CCC(N2CCOCC2)CC1 [Example 279],192,9
CCc1c(NCCc2ccc(Cl)c(Cl)c2)ncnc1C(=O)N1CCC(N2CCC(O)CC2)CC1 [Example 280],1440,32
CCc1c(NCCc2ccc(Cl)c(Cl)c2)ncnc1C(=O)N1CCC(N2CCOCC2)CC1 [Example 281],1010,24
CCc1c(NCc2cccc(-c3ccccc3)c2)ncnc1C(=O)N1CCC(N2CCC(O)CC2)CC1 [Example 282],1530,39
Cc1c(NCc2cccc(-c3ccccc3)c2)cccc1C(=O)N1CCC(N2CCC(O)CC2)CC1 [Example 283],4420,48
Cc1c(NCCc2ccc(Cl)c(Cl)c2)ncnc1C(=O)N1CCC(N2CCN(C(=O)C(C)C)CC2)CC1 [Example 284],1510,42
Cc1c(NCCc2ccc(Cl)c(Cl)c2)ncnc1C(=O)N1CCC(N2CCN(S(C)(=O)=O)CC2)CC1 [Example 285],1310,35
Cc1c(NCc2ccc(C(C)(C)C)cc2)ncnc1C(=O)N1CCCN(C2CCCC2)CC1 [Example 286],965,19
Cc1c(NCc2ccc(C(C)(C)C)cc2)ncnc1C(=O)N1CCCN(C(C)C)CC1 [Example 287],2550,33
Cc1c(NCc2ccc(C(C)(C)C)cc2)ncnc1C(=O)N1CCCN(C2CCOCC2)CC1 [Example 288],738,13
Cc1c(C(=O)N2CCC(N3CCC(N(C)S(C)(=O)=O)CC3)CC2)ncnc1-c1ccc(C(C)(C)C)cc1 [Example 289],1670,34
Cc1c(Oc2ccc(Cl)cc2)ncnc1C(=O)N1CCC(N2CCC(N(C)S(C)(=O)=O)CC2)CC1 [Example 290],1600,28
Cc1c(Oc2ccc(C(C)(C)C)cc2)ncnc1C(=O)N1CCC(N2CCC(N(C)S(C)(=O)=O)CC2)CC1 [Example 291],3120,32
Cc1cc(COc2ncnc(C(=O)N3CCC(N4CCC(N(C)S(C)(=O)=O)CC4)CC3)c2C)ccc1Cl [Example 292],136,15
Cc1c(OCc2ccc(C#N)cc2)ncnc1C(=O)N1CCC(N2CCC(N(C)S(C)(=O)=O)CC2)CC1 [Example 293],717,27
Cc1ccc(COc2ncnc(C(=O)N3CCC(N4CCC(N(C)S(C)(=O)=O)CC4)CC3)c2C)cc1F [Example 294],230,16
Cc1c(OCC2CCN(c3ccccc3)C2)ncnc1C(=O)N1CCC(N2CCC(N(C)S(C)(=O)=O)CC2)CC1 (centres unmarked) [Example 295],140,0
Cc1c(OCc2ccc(C(C)(C)C)cc2)ncnc1C(=O)N1CCC(N2CCC(N(C)S(C)(=O)=O)CC2)CC1 [Example 296],69,3
Cc1c(OCc2ccc(C(C)(C)C)cc2)ncnc1C(=O)N1CCC(N2CCOCC2)CC1 [Example 298],599,17
Cc1c(OCc2ccc(C(C)(C)C)cc2)ncnc1C(=O)N1CCC(N2CCC(NS(C)(=O)=O)CC2)CC1 [Example 299],70,6
CNC(=O)C1CCN(C2CCN(C(=O)c3ncnc(OCc4ccc(C(C)(C)C)cc4)c3C)CC2)CC1 [Example 300],136,8
COc1nc(OCc2ccc(C(C)(C)C)cc2)c(C)c(C(=O)N2CCC(N3CCC(N(C)S(C)(=O)=O)CC3)CC2)n1 [Example 301],22,–
COc1nc(OCC2CCCC(c3ccccc3)C2)c(C)c(C(=O)N2CCC(N3CCC(N(C)S(C)(=O)=O)CC3)CC2)n1 (centres unmarked) [Example 302],32,–

# Next, values leading:
Ki [nM],remaining activity at 10 µM [%],SMILES
4,–,CO[C@@H]1COCC[C@@H]1NC1CCN(C(=O)c2ncnc(NC[C@H]3CCC[C@@H](c4ccc(C)o4)C3)c2C)CC1 [Example 275da]
33,–,CO[C@@H]1COCC[C@@H]1NC1CCN(C(=O)c2ncnc(NC[C@@H]3CCC[C@H](c4ccc(C)o4)C3)c2C)CC1 [Example 275db]
11,–,CO[C@@H]1COCC[C@@H]1NC1CCN(C(=O)c2nc(C)nc(NC[C@H]3C[C@@H](c4ccccc4)C3)c2C)CC1 [Example 275dc]
40,–,CO[C@H]1COCC[C@H]1NC1CCN(C(=O)c2ncnc(NC[C@H]3C[C@@H](c4ccccc4)C3)c2C)CC1 [Example 275dd]
16,–,CO[C@@H]1COCC[C@@H]1NC1CCN(C(=O)c2nc(C)nc(NC[C@H]3C[C@H](c4ccccc4)C3)c2C)CC1 [Example 275de]
15,–,CO[C@@H]1COCC[C@@H]1NC1CCN(C(=O)c2ncnc(NC[C@H]3C[C@H](c4ccccc4)C3)c2C)CC1 [Example 275df]
12,–,CO[C@@H]1COCC[C@@H]1NC1CCN(C(=O)c2ncnc(NC[C@H]3C[C@@H](c4ccccc4)C3)c2C)CC1 [Example 275dg]
3,–,CO[C@H]1COCC[C@H]1NC1CCN(C(=O)c2ncnc(NC[C@H]3CCC[C@@H](c4ccccc4)C3)c2C)CC1 [Example 275dh]
1,–,CO[C@@H]1COCC[C@@H]1NC1CCN(C(=O)c2ncnc(NC[C@H]3CCC[C@@H](c4ccccc4)C3)c2C)CC1 [Example 275di]
4,–,COC1COCCC1N(C)C1CCN(C(=O)c2ncnc(NC[C@H]3CCC[C@@H](c4ccccc4)C3)c2C)CC1 (some centres unmarked) [Example 275dj]
17,–,C=Cc1c(NC[C@H]2CCC[C@@H](c3ccccc3)C2)ncnc1C(=O)N1CCC(N2CCC(N(C)S(C)(=O)=O)CC2)CC1 [Example 275dk]
372,–,C#Cc1c(NC[C@H]2CCC[C@@H](c3ccccc3)C2)ncnc1C(=O)N1CCC(N2CCC(N(C)S(C)(=O)=O)CC2)CC1 [Example 275dl]
